This note sets out measurements from patent US6194173A, “Binding proteins for phosphoinositides, GRP1 or general receptor 1 for phophoinositide” (priority 1999, dated 2001).

In test [1] the target is T1, PH domain of GRP (Mus musculus, UniProt O08967).
T1 sequence (O08967 239-399): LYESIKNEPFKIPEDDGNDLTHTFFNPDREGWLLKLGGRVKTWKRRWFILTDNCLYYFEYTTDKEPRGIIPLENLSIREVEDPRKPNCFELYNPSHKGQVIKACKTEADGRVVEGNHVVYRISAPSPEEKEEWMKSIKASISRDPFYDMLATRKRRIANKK
As to the kind of experiment: Competition for [3H]dioctanoyl PtdIns(3,4,5)P3 binding to the PH domain of GRP. Also on record: GST fused to the PH region of GRP (amino acids 239-399); made in house; host or cells: bacteria. Conditions: competition for [^3 H]dioctanoyl PtdIns(3,4,5)P3. The method, then:
Binding assays were performed as described in (Rameh, L. E. et al., J. Biol. Chem., In Press). Briefly, GST fused to the PH region of GRP (amino acids 239-399) was bound to glutathione immobilized on agarose beads (Sigma). Synthetic [^3 H]-labeled diotanoyl PtdIns(3,4,5)P3 was added, and after one hour the beads were separated from the supernatant by centrifugation. The amount of [^3 H]-PtdIns(3,4,5)P3 bound to the PH domain was calculated by subtracting the amount of free [^3 H] present in supernatants from GST-GRP from the amount of free [^3 H] in supernatants from control GST. The data was fitted to the equation [bound]=Bmax×[free]/(KD + [free]) by least squares curve fit. For the competition assays the beads containing the GST-fusion proteins were incubated with 2.5 μM[^3 H]-labeled dioctanoyl PtdIns(3,4,5)P3 bound was calculated based on the amount of [^3 H] bound to the beads in the absence of competitor. The total [^3 H] bound to the GST control was less then 0.5% of the total [^3 H] bound to GRP PH domain. The data was fitted to the equation % bound=100-n×L/Klapp +L) where n is the % specific binding, L is the concentration of unlabeled lipid added and Klapp is the apparent competitive dissociation constant. The rations of the apparent dissociation constants accurately reflect the ratios of the true dissociation constants under the present experimental conditions (Rameh, L. E. et al., J. Biol. Chem., In Press).
The data depicted in FIG. 8 indicate that receptor signaling through PI3-kinases, which generates PtdIns(3,4,5)P3, may specifically regulate ARF proteins through GRP. In order to further test this, the relative binding affinities of PtdIns(3,4,5)P3 versus PtdIns (4,5)P2, which is constitutively present in cell membranes, for the PH domain of GRP were determined. A GST fusion protein of the PH domain of GRP was incubated with various concentrations of synthetic [^3 H]dioctanoyl PtdIns(3,4,5)P3 and binding was determined (FIG. 9A). These experiments show high affinity binding of this polyphosphoinositide,with a calculated Kd=0.5 μM.

Test [2] has as its system GRP Sec7 homology domain. As to the kind of experiment: Effect of phosphoinositides on ARF1 exchange catalyzed by the GRP Sec7 domain. Conditions: 25 μM PtdIns(3,4,5)P3. Type of test: biochemical, mouse.

As for “Phosphatidylinositol (3,4,5)-Trisphosphate [PtdIns(3,4,5)P3]”, the “KI(app), fold lower than for PtdIns(4,5)P2” value in test [1] is 10-20 fold. Further, the “effect on ARF exchange activity catalyzed by the GRP Sec7 homology domain” value in test [2] is listed as “no effect”.
